{
  "source": "patent US20260053811A1",
  "about": "“METHODS OF TREATING HYPERTENSION IN OBESE SUBJECTS” (Mineralys Therapeutics, Inc., priority 2022, published 2026)",
  "tested_on": "hypertensive subjects",
  "assay": "Seated automated office blood pressure (AOBP) in randomized, placebo-controlled, dose-ranging study",
  "assay_type": "in vivo, human",
  "set-up": "Difference from placebo in change in blood pressure: unit not given here",
  "details": "for Modelled (ANCOVA) LSM (SEM) change from baseline, seated AOBP SBP / LSM Δ with PRA Baseline <1 ng/mL/h, seated AOBP SBP (ANCOVA): 100 mg QD Parts 1 & 2",
  "protocol": "A randomized, double-blinded, placebo-controlled, dose-ranging, multicenter study was conducted to evaluate the effect of orally administered Compound A HBr on blood pressure for the treatment of hypertension in male and female subjects ≥18 years of age.\nThe study consists of two parts. For enrollment into Part 1 of the study, a subject's value of plasma renin activity (PRA) must be ≤1 ng/mL/h based on morning measurement. If the value of PRA >1 ng/mL/h based on morning measurement, then subjects may be eligible to enter Part 2 of the study.\nFor Part 1, 163 enrolled subjects ≥18 years of age were randomized into 6 equal treatment groups (1:1:1:1:1:1) to 12.5 mg BID, 25 mg BID, 12.5 mg QD, 50 mg QD, 100 mg QD, or placebo. After a review of interim clinical data, the 2 lowest dose levels (12.5 mg QD and 12.5 mg BID) were stopped for future randomization due to a lack of consistent meaningful reduction of blood pressure, but the patients randomized to that point remained in the study through completion. Thus, after the review of interim clinical data, subjects were randomized into 4 equal treatment groups (1:1:1:1) to 25 mg BID, 50 mg QD, 100 mg QD, or placebo.\nFor Part 2, 36 enrolled subjects ≥18 years of age were randomized (5:1) to either 100 mg QD Compound A HBr or placebo such that the Compound A HBr treatment group consisted of approximately 30 subjects and the placebo treatment group will consist of approximately 6 subjects.\nSubjects orally administered the assigned study drug (Compound A HBr or placebo) according to the assigned dosing regimen for 8 weeks beginning on Study Day 1. All subjects in Part 1 (regardless of dosing group) received BID dosing to preserve the integrity of the blind; active drug is administered as the morning dose for all QD dose groups. Subjects returned to the research facility or were seen by the clinical investigator or approved home health care professional at the end of Study Weeks 1, 2, 3, 4, 5, 6, 7, and 8 (±2 days) for protocol-defined efficacy and safety assessments and procedures, assessment of adverse events (AEs), and confirmation of compliance with study drug usage. Subjects also completed a telephone visit and blood pressure (BP) check at home approximately 3 days post last dose of study drug. Subjects attended up to 14 full clinic visits, including a pre-Screening visit, a Screening/start of Placebo Run-in visit, a second visit during Placebo Run-in, a clinic visit to initiate the ABPM procedure, a Randomization visit, 8 weekly visits during double-blind treatment, and an end-of-study visit scheduled 4 weeks after the last study treatment for final efficacy and safety assessments.\nAn automated oscillometric sphygmomanometer device was used to measure the subjects' systolic and diastolic blood pressure in office after approximately 5 minutes of rest in the seated position.\nThe primary endpoint is the change in office-measured (mean of last 2 of 5 unattended measurements using an automated oscillometric sphygmomanometer device after approximately 5 minutes of rest in the seated position) systolic blood pressure (SBP) from baseline to the end of Study Week 8.\nSecondary endpoints of this study were: • (a) Change in 24-hour ambulatory blood pressure monitoring (ABPM) parameters (systolic and diastolic) from baseline to the end of Study Week 7. • (b) Change in office-measured SBP from baseline to the end of Study Weeks 1, 2, 3, 4, 5, 6, and 7. • (c) Change in office-measured diastolic blood pressure (DBP) from baseline to the end of Study Weeks 1, 2, 3, 4, 5, 6, 7, and 8. • (d) Proportion of subjects who achieve office-measured BP of ≤130/80 mm Hg by the end of Study Week 8.",
  "key": {"[1]": {"details": "100 mg QD Part 2, Week 8, Parts 1 & 2 model, FAS"}, "[2]": {"details": "PRA Baseline >=1 ng/mL/h, Week 4, FAS"}, "[3]": {"details": "PRA Baseline >=1 ng/mL/h, Week 8, FAS"}},
  "note": "Marks after values point to notes of the source that are not given here.",
  "data": [
    {"smiles": "CC(=O)N[C@H]1CC[C@H](NC(=O)CN2CCN(c3nncc(-c4ccc(C)cc4)n3)CC2)CC1", "note": "[Compound A HBr]", "values": [
      {"measurement": "LSM Δ with Placebo, change from baseline in seated AOBP SBP (MMRM)", "setting": "100 mg QD Part 2 (vs 100 mg QD Part 1 per text), Week 8, FAS", "value": 0.74, "unit": "mmHg"},
      {"measurement": "LSM Δ with 100 mg QD Part 1, seated AOBP DBP (MMRM)", "setting": "100 mg QD Part 2, Week 4, FAS", "value": "−0.43", "unit": "mmHg"},
      {"measurement": "Modelled (MMRM) LSM (SEM) change from baseline, seated AOBP DBP", "setting": "100 mg QD Part 2, Week 4, Parts 1 & 2 model, FAS", "value": "−6.30 (1.44) mmHg"},
      {"measurement": "Modelled (MMRM) LSM (SEM) change from baseline, seated AOBP DBP", "setting": "[1]", "value": "−5.55 (1.42) mmHg"},
      {"measurement": "Modelled (MMRM) LSM (SEM) change from baseline, seated AOBP SBP", "setting": "[1]", "value": "−11.35 (2.48) mmHg"},
      {"measurement": "Modelled (ANCOVA) LSM (SEM) change from baseline, seated AOBP SBP", "setting": "PRA Baseline <1 ng/mL/h, Week 4, FAS", "value": "−15.42 (3.12) mmHg"},
      {"measurement": "Modelled (ANCOVA) LSM (SEM) change from baseline, seated AOBP SBP", "setting": "PRA Baseline <1 ng/mL/h, Week 8, FAS", "value": "−11.27 (3.13) mmHg"},
      {"measurement": "LSM Δ with PRA Baseline <1 ng/mL/h, seated AOBP SBP (ANCOVA)", "setting": "[2]", "value": 0.18, "unit": "mmHg"},
      {"measurement": "Modelled (ANCOVA) LSM (SEM) change from baseline, seated AOBP SBP", "setting": "[2]", "value": "−15.24 (2.75) mmHg"},
      {"measurement": "LSM Δ with PRA Baseline <1 ng/mL/h, seated AOBP SBP (ANCOVA)", "setting": "[3]", "value": "−2.07", "unit": "mmHg"},
      {"measurement": "Modelled (ANCOVA) LSM (SEM) change from baseline, seated AOBP SBP", "setting": "[3]", "value": "−13.34 (2.52) mmHg"},
      {"measurement": "Difference from placebo in change in blood pressure", "setting": "100 mg QD, BMI 25-30", "value": "−2.6"},
      {"measurement": "Difference from placebo in change in blood pressure", "setting": "100 mg QD, BMI >30", "value": "−13.2*"},
      {"measurement": "Mean placebo-adjusted reduction in AOBP SBP", "setting": "100 mg QD, Part 1, Week 8", "value": 7.81, "unit": "mmHg"},
      {"measurement": "Proportion of subjects with AOBP ≤130/80 mmHg", "setting": "100 mg QD, Part 1, Week 8", "value": 30, "unit": "%"},
      {"measurement": "Proportion of subjects with AOBP ≤130/80 mmHg", "setting": "100 mg QD, Part 2, Week 8", "value": 54.8, "unit": "%"},
      {"measurement": "Mean reduction in AOBP systolic BP, placebo-corrected, Full-analysis set", "setting": "100 mg QD, Part-1 and Part-2 (interim) combined, N=58 active", "value": "−9.9", "unit": "mmHg"},
      {"measurement": "Difference from placebo in change in blood pressure", "setting": "100 mg QD, Thiazide No", "value": "−3.3"},
      {"measurement": "Difference from placebo in change in blood pressure", "setting": "100 mg QD, Thiazide Yes", "value": "−11.4*"},
      {"measurement": "Seated AOBP DBP change from baseline (CFB), Mean (SD)", "setting": "100 mg QD, Week 1, Part 1, FAS", "value": "0.98 (8.29) mmHg"},
      {"measurement": "Seated AOBP DBP, Mean (SD)", "setting": "100 mg QD, Week 1, Part 1, FAS", "value": "79.70 (11.07) mmHg"},
      {"measurement": "Seated AOBP SBP change from baseline (CFB), Mean (SD)", "setting": "100 mg QD, Week 1, Part 1, FAS", "value": "0.06 (12.66) mmHg"},
      {"measurement": "Seated AOBP SBP, Mean (SD)", "setting": "100 mg QD, Week 1, Part 1, FAS", "value": "144.41 (14.54) mmHg"},
      {"measurement": "Seated AOBP DBP change from baseline (CFB), Mean", "setting": "100 mg QD, Week 1, Part 2, FAS", "value": "−5.85", "unit": "mmHg"},
      {"measurement": "Seated AOBP DBP, Mean", "setting": "100 mg QD, Week 1, Part 2, FAS", "value": 72.19, "unit": "mmHg"},
      {"measurement": "Seated AOBP SBP change from baseline (CFB), Mean", "setting": "100 mg QD, Week 1, Part 2, FAS", "value": "−11.35", "unit": "mmHg"},
      {"measurement": "Seated AOBP SBP, Mean", "setting": "100 mg QD, Week 1, Part 2, FAS", "value": 129.00, "unit": "mmHg"},
      {"measurement": "Seated AOBP DBP change from baseline (CFB), Mean (SD)", "setting": "100 mg QD, Week 2, Part 1, FAS", "value": "−2.14 (9.60) mmHg"},
      {"measurement": "Seated AOBP DBP, Mean (SD)", "setting": "100 mg QD, Week 2, Part 1, FAS", "value": "76.36 (11.90) mmHg"},
      {"measurement": "Seated AOBP SBP change from baseline (CFB), Mean (SD)", "setting": "100 mg QD, Week 2, Part 1, FAS", "value": "−5.64 (16.38) mmHg"},
      {"measurement": "Seated AOBP SBP, Mean (SD)", "setting": "100 mg QD, Week 2, Part 1, FAS", "value": "139.04 (18.22) mmHg"},
      {"measurement": "Seated AOBP DBP change from baseline (CFB), Mean", "setting": "100 mg QD, Week 2, Part 2, FAS", "value": "−5.13", "unit": "mmHg"},
      {"measurement": "Seated AOBP DBP, Mean", "setting": "100 mg QD, Week 2, Part 2, FAS", "value": 73.10, "unit": "mmHg"},
      {"measurement": "Seated AOBP SBP change from baseline (CFB), Mean", "setting": "100 mg QD, Week 2, Part 2, FAS", "value": "−8.80", "unit": "mmHg"},
      {"measurement": "Seated AOBP SBP, Mean", "setting": "100 mg QD, Week 2, Part 2, FAS", "value": 131.33, "unit": "mmHg"},
      {"measurement": "Seated AOBP DBP change from baseline (CFB), Mean (SD)", "setting": "100 mg QD, Week 3, Part 1, FAS", "value": "−5.48 (9.36) mmHg"},
      {"measurement": "Seated AOBP DBP, Mean (SD)", "setting": "100 mg QD, Week 3, Part 1, FAS", "value": "72.84 (10.83) mmHg"},
      {"measurement": "Seated AOBP SBP change from baseline (CFB), Mean (SD)", "setting": "100 mg QD, Week 3, Part 1, FAS", "value": "−9.20 (11.37) mmHg"},
      {"measurement": "Seated AOBP SBP, Mean (SD)", "setting": "100 mg QD, Week 3, Part 1, FAS", "value": "136.56 (14.68) mmHg"},
      {"measurement": "Seated AOBP DBP change from baseline (CFB), Mean", "setting": "100 mg QD, Week 3, Part 2, FAS", "value": "−4.76", "unit": "mmHg"},
      {"measurement": "Seated AOBP DBP, Mean", "setting": "100 mg QD, Week 3, Part 2, FAS", "value": 73.72, "unit": "mmHg"},
      {"measurement": "Seated AOBP SBP change from baseline (CFB), Mean", "setting": "100 mg QD, Week 3, Part 2, FAS", "value": "−8.76", "unit": "mmHg"},
      {"measurement": "Seated AOBP SBP, Mean", "setting": "100 mg QD, Week 3, Part 2, FAS", "value": 131.52, "unit": "mmHg"},
      {"measurement": "LSM Δ with Placebo, seated AOBP DBP (MMRM)", "setting": "100 mg QD, Week 4, Part 1, FAS", "value": "−6.42", "unit": "mmHg"},
      {"measurement": "Modelled (MMRM) LSM (SEM) change from baseline, seated AOBP DBP", "setting": "100 mg QD, Week 4, Part 1, FAS", "value": "−6.96 (1.48) mmHg"}
    ]}
  ]
}
